Converted amounts (≈) assume the structure as drawn. Read-outs that look alike come from different tables or passages of the source. Some results are limits rather than exact numbers.

The values below come from patent publication US10800732B2, “Substituted malonamides and their use as antibacterial drugs” (National Taiwan University, priority 2015, dated 2020).

One assay deals with MRSA SCCmec VT. In words: MIC, MRSA SCCmec VT. The format is cell-based, methicillin-resistant Staphylococcus aureus. The conditions noted are these: Staphylococcus aureus; MRSA SCCmec VT; read-out: MIC.
In assay [1] the test system is S. epidermidis ATCC 12228. In words: MIC, S. epidermidis ATCC 12228. The format is cell-based. To be noted: Staphylococcus epidermidis, ATCC12228; S. epidermidis ATCC 12228; read-out: MIC.
The test system of a further assay is MRSA ATCC 33592. In words: MIC, MRSA ATCC 33592. Format: cell-based, methicillin-resistant Staphylococcus aureus. To be noted: Staphylococcus aureus, MRSA ATCC 33592, read-out: MIC.
The subject of the next assay is MRSA ATCC 49476. In words: MIC, MRSA ATCC 49476. Format: cell-based, methicillin-resistant Staphylococcus aureus. To be noted: Staphylococcus aureus; MRSA ATCC 49476; read-out: MIC.
The test system of assay [2] is S. aureus NCTC 8325. In words: MIC, S. aureus NCTC 8325 (CLSI broth microdilution / agar dilution). Format: cell-based, Staphylococcus aureus. The conditions noted are these: Staphylococcus aureus. (In general: Broth dilution looks for growth in wells or tubes with falling amounts of substance.)
Assay [3] concerns S. aureus NCTC 8325. The format is cell-based, Staphylococcus aureus. The conditions noted are these: for fold MIC change (resistance): sub-inhibitory concentration for 30 consecutive days.
Setting [4] is: MSSA NCTC 8325, Table 6, read-out: MIC.

With `O=C(N[C@H](CO)[C@H](O)c1ccc([N+](=O)[O-])cc1)C(Cl)Cl` [Chloramphenicol], the MIC in the assay with MRSA SCCmec VT was determined as 64 µg/mL (≈ 198 µM); in assay [1] it was 2 µg/mL (≈ 6.19 µM); in the assay with MRSA ATCC 33592, 32 µg/mL (≈ 99 µM); in the assay with MRSA ATCC 49476 it was 8 µg/mL (≈ 24.8 µM); in the assay with S. aureus NCTC 8325 [2] (NCTC8325, S. aureus NCTC 8325, read-out: MIC), 4 µg/mL (≈ 12.4 µM). In addition, in the assay on S. aureus NCTC 8325 [3], the “fold MIC change (resistance)” value is “no resistance”.
Consider `CC1COc2c(N3CCN(C)CC3)c(F)cc3c(=O)c(C(=O)O)cn1c23` (stereo not drawn) [Ofloxacin], for which the MIC in the assay with MRSA SCCmec VT was 0.25 µg/mL (≈ 0.692 µM); in assay [1], 0.25 µg/mL (≈ 0.692 µM); with MRSA ATCC 33592, 0.25 µg/mL (≈ 0.692 µM); in the assay on MRSA ATCC 49476 it was 0.5 µg/mL (≈ 1.38 µM); with S. aureus NCTC 8325 [2] (NCTC8325), 0.125 µg/mL (≈ 0.346 µM). Besides, in the assay with S. aureus NCTC 8325 [3], the “fold MIC change (resistance)” value stood at 8 fold.
As for `CO[C@H]1/C=C/O[C@@]2(C)Oc3c(C)c(O)c4c(O)c(c(/C=N/N5CCN(C)CC5)c(O)c4c3C2=O)NC(=O)/C(C)=C\C=C\[C@H](C)[C@H](O)[C@@H](C)[C@@H](O)[C@@H](C)[C@H](OC(C)=O)[C@@H]1C` [Rifampicin], the MIC in the assay on MRSA SCCmec VT was 0.5 µg/mL (≈ 0.608 µM); in assay [1] it was under 0.004 µg/mL; in the assay on MRSA ATCC 33592 it was over 64 µg/mL; with MRSA ATCC 49476, 0.25 µg/mL (≈ 0.304 µM); with S. aureus NCTC 8325 [2] (NCTC8325) it was 0.125 µg/mL (≈ 0.152 µM). The “time to over 64-fold MIC change” value with S. aureus NCTC 8325 [3] (sub-inhibitory concentration, serial passage) is given as at most 6 days.
Turning to `C#Cc1cccc(NC(=O)C(CC=C)C(=O)Nc2cccc(C#C)c2)c1` [SC5038, 2-allyl-N^1,N^3-bis(3-ethynylphenyl)malonamide], the MIC in the assay on MRSA ATCC 33592 (Table 6) and in the assay with S. aureus NCTC 8325 [2] (setting [4]) was over 32 µg/mL throughout.
Take `C=CCC(C(=O)Nc1cccc(CC)c1)C(=O)Nc1cccc(CC)c1` [SC5039, 2-allyl-N^1,N^3-bis(3-ethylphenyl)malonamide]: the MIC in the assay with MRSA ATCC 33592 (Table 6) and in the assay with S. aureus NCTC 8325 [2] (setting [4]) was over 32 µg/mL throughout.
Regarding `C=CCC(C(=O)Nc1cc(Cl)cc(Cl)c1)C(=O)Nc1cc(Cl)cc(Cl)c1` [SC5040, 2-allyl-N^1,N^3-bis(3,5-dichlorophenyl)malonamide], the MIC in the assay with MRSA ATCC 33592 (Table 6) and with S. aureus NCTC 8325 [2] (setting [4]) was over 32 µg/mL throughout.
Consider `O=C(Nc1cc(Cl)cc(Cl)c1)C(CCCl)C(=O)Nc1ccc([N+](=O)[O-])c(C(F)(F)F)c1` (stereo not drawn) [SC5041, 2-(2-chloroethyl)-N^1-(3,5-dichlorophenyl)-N^3-(4-nitro-3-(trifluoromethyl)phenyl)malonamide], for which the MIC in the assay with MRSA ATCC 33592 (Table 6) and in the assay on S. aureus NCTC 8325 [2] (setting [4]) was 0.5 µg/mL (≈ 1 µM) throughout.
Turning to `CCCNC(=O)C(CCCl)C(=O)NCCC` [SC5046, 2-(2-chloroethyl)-N1,N3-dipropylmalonamide], the MIC in the assay with MRSA ATCC 33592 (Table 6) and in the assay on S. aureus NCTC 8325 [2] (setting [4]) was over 64 µg/mL throughout.
Turning to `CCCCNC(=O)C(CCCl)C(=O)NCCCC` [SC5047, N1,N3-dibutyl-2-(2-chloroethyl)malonamide], the MIC with MRSA ATCC 33592 (Table 6) and with S. aureus NCTC 8325 [2] (setting [4]) was over 64 µg/mL each time.
Regarding `O=C(NC1CCCCC1)C(CCCl)C(=O)NC1CCCCC1` [SC5048, 2-(2-chloroethyl)-N1,N3-dicyclohexylmalonamide], the minimum inhibitory concentration (MIC) in the assay on MRSA ATCC 33592 (Table 6) and in the assay on S. aureus NCTC 8325 [2] (setting [4]) was over 64 µg/mL each time.
Consider `CCCNC(=O)C(CCCl)C(=O)Nc1ccc(Cl)c(C(F)(F)F)c1` (stereo not drawn) [SC5049, N1-(4-chloro-3-(trifluoromethyl)phenyl)-2-(2-chloroethyl)-N3-propylmalonamide], for which the MIC with MRSA ATCC 33592 (Table 6) and in the assay on S. aureus NCTC 8325 [2] (setting [4]) was over 64 µg/mL each time.
Regarding `C=CCNC(=O)C(CCCl)C(=O)Nc1ccc(Cl)c(C(F)(F)F)c1` (stereo not drawn) [SC5050, N1-allyl-N3-(4-chloro-3-(trifluoromethyl)phenyl)-2-(2-chloroethyl)malonamide], the MIC with MRSA ATCC 33592 (Table 6) and in the assay on S. aureus NCTC 8325 [2] (setting [4]) was over 64 µg/mL throughout.
In the case of `C=CCNC(=O)C(CCCl)C(=O)NCC=C` [SC5051, N1,N3-diallyl-2-(2-chloroethyl)malonamide], the MIC in the assay on MRSA ATCC 33592 (Table 6) and in the assay on S. aureus NCTC 8325 [2] (setting [4]) was over 64 µg/mL throughout.
`CCCCNC(=O)C(CCCl)C(=O)Nc1ccc(Cl)c(C(F)(F)F)c1` (stereo not drawn) [SC5052, N1-butyl-N3-(4-chloro-3-(trifluoromethyl)phenyl)-2-(2-chloroethyl)malonamide]: the minimal inhibitory concentration (MIC) with MRSA ATCC 33592 (Table 6) and with S. aureus NCTC 8325 [2] (setting [4]) was over 64 µg/mL throughout.
As to `O=C(Nc1ccc(Cl)c(C(F)(F)F)c1)C(CCCl)C(=O)NC1CCCCC1` (stereo not drawn) [SC5053, N1-(4-chloro-3-(trifluoromethyl)phenyl)-2-(2-chloroethyl)-N3-cyclohexylmalonamide], the minimum inhibitory concentration (MIC) in the assay with MRSA ATCC 33592 (Table 6) and in the assay on S. aureus NCTC 8325 [2] (setting [4]) was over 64 µg/mL each time.

One may read the MIC as the smallest concentration in the dilution series that meets the test's criterion for growth inhibition.
